We go through 2 molecules from US11700805B2, “Regeneration of plants in the presence of histone deacetylase inhibitors” (KWS SAAT SE & CO. KGaA, priority 2017, dated 2023).

Entries after “also recorded” stand apart in the source; their conditions may differ. Where two headings read alike, the source gives them in different places.

The test system of assay [1] is Arabidopsis hypocotyl explants. As to conditions: alone or in combination of kinetin and TSA; cited from earlier work.
Assay [2] deals with leaf explants of sugar beet (Beta vulgaris). The class given is cell-based. How it is done:
1. Technical Description of the Sugar Beet Callus Induction Protocol
This method is based on the publication by Kischenko et al., 2005 Cell Biology International.
1. Micropropagated shoots of the genotype S706 were used as starting material. Shoots were multiplied in MS salts supplemented with 30 g/l sucrose and 0.25 mg/l benzyladenine (BAP).
2. To induce friable callus, leaf explants were isolated from micropropagated shoots and incubated in medium containing MS salts including 15 g/l sucrose and 2 mg/l BAP as a control and in the same medium supplemented with 0.01 μM TSA (B1), 0.1 μM TSA (B2), 0.5 μM TSA (B3), 1.0 μM TSA (B4), and 5.0 μM TSA (B5), at 28° C. in the dark for 7 weeks.
3. Development of callus from leaf explants was monitored during the incubation in the callus induction medium at 4, 5, 6 and 7 weeks.
4. Leaf explants producing friable calli were scored in order to calculate the callus induction frequency (percentage of leaf explants that produced friable calli).

Assay [3] concerns Arabidopsis leaf explants. The note with it: treatment with TSA; cited from earlier work.
Assay [4] concerns cells derived from male gametophytes of diverse plant species. As to conditions: TSA added to the culture medium; cited from earlier work.
In assay [5] the test system is friable calli from sugar beet leaf explants. As to the kind of experiment: Shoot regeneration from friable calli induced in the presence of TSA. The class given is cell-based, Beta vulgaris. How it is done: 2. Technical Description of the Shoot Regeneration Protocol 1. The friable calli of step 4 were harvested in medium containing MS salts, 30 g/l sucrose, 1 mg/l GA3 and 1 mg/l TDZ, and transferred to separate dishes. 2. The dishes were incubated under the light (16 h) at 24° C. for 10 days. 3. Developing shoots were counted under a stereomicroscope, in order to estimate the regeneration capacity (number of shoots per initial leaf explant).

Take `c1coc(CNc2ncnc3[nH]cnc23)c1` [Kinetin]: the “induction of callus growth” value in assay [1] is reported as “did not induce callus growth”.

`CC(/C=C/C(=O)NO)=C\[C@@H](C)C(=O)c1ccc(N(C)C)cc1` [TSA, trichostatin A]: in assay [2] (after 28 days, without TSA not reached even after 49 days), the “number of leaf explants with developing calli” value is “high number”. Besides, in assay [2] (first initial tests, TSA added), the “genotype-dependent recalcitrance to callus formation” value is reported as “could be reduced”. For the same molecule, the “average callus induction frequency” value in assay [2] (genotype 1, 0.01 μM TSA, control without TSA 66.3%) was found to be 82%. In addition, the callus induction frequency in assay [2] (genotype 2, 0.01 μM TSA vs control) is on record as “no significant increase”; in assay [2] (genotype 3 (high level of recalcitrance), 0.01 μM TSA) it was “very low”. Besides, the “speed of callus formation” value in assay [2] (genotype S706, FIG. 5, vs medium without TSA) is “accelerates”. Moreover, the “callus amount per leaf explant” value in assay [2] (genotype S706, FIGS. 3B and 4B, vs medium without TSA) is listed as “increases”. Moreover, the “callus induction frequency (percentage of leaf explants that produced friable calli)” value in assay [2] (genotype S706, TSA 0.01 μM to 1.0 μM in callus induction medium, vs medium without TSA) is “increased”. Besides, in assay [3], the callus formation is reported as “defective callus formation”. Also, the “proportion of cells undergoing embryogenic growth” value in assay [4] was “large increase”. The “average number of shoots per explant” value in assay [5] (genotype 1, callus induced with 0.01 μM TSA, control 4.7) is 7.7; in assay [5] (genotype 2, callus induced with 0.01 μM TSA, control 2.4) it was 4.6. Further, the “regeneration of shoots from produced calli” value in assay [5] (genotype 3 (high level of recalcitrance), callus induced with 0.01 μM TSA) is on record as “able to regenerate shoots only when the calli were produced in medium containing TSA; also recorded: only possible if the callus has been induced in the presence of TSA”. The “number of regenerated shoots per explant” value in assay [5] (genotype S706, FIGS. 3C and 4C, vs control) is “increased”. In addition, the “induction of callus growth” value in assay [1] is “did not induce callus growth”.
